Data on four compounds can be found in patent US20210179714A1, “Inhibition of CTLA-4 and/or PD-1 For Regulation of T Cells” (MEMORIAL SLOAN KETTERING CANCER CENTER, priority 2017, published 2021).

Assay [1] has as its system 4PD1^hi. In words: 4PD1hi and Treg frequency/phenotype in tumor-bearing mice under treatment (FACS, immunofluorescence). In kind it is in vivo, mouse. The protocol:
(§1) B16 melanoma cells were implanted intradermally (10^5 cells, for tumor-growth and survival analyses) or subcutaneously in matrigel (Matrigel Matrix Growth Factor Reduced, Becton Dickinson) (2×10^5 cells, for immune-cell infiltrate analyses) in C57BL/6J mice. Vaccination with VRP-TRP2 (AlphaVax Inc.) was performed by injection of 1×10^6 virus-like replicon particles (VRPs) (Zappasodi and Merghoub, 2015) expressing mouse TRP2 into the plantar surface of each footpad for 3 times 1 week apart, starting 3 days after tumor implantation (Avogadri et al., 2014). Treatment with anti-CTLA-4 (clone 9D9, 100 μg or 300 μg/injection), anti-PD-1 (clone RMP1-14, 250 μg/injection), or the matched isotype IgGs (BioXcell) was started 3-4 (optimal treatment) or 6-7 days (suboptimal treatment) after tumor implantation for respectively 5 or 4 intraperitoneal (i.p.) administrations 3 days apart. Immunization with sRBC was performed i.p. with 200 μl 10% volume/volume sRBC solution (Innovative Research). The Bcl6 inhibitor 79.6 (Calbiochem) was administered daily i.p. in 10% DMSO at 50 mg/kg (Cerchietti et al., 2010). TUBO breast carcinoma cells were implanted subcutaneously in Balb/c mice (10^6 cells/mouse) and anti-CTLA-4 treatment was started 10 days after. Animals were monitored at least twice a week and were considered tumor-free until intradermal lesions were palpable.
(§2) Tumors were dissociated after 30 min incubation with Liberase TL and DNAse I (Roche) to obtain single-cell suspensions. When tumor mass exceeded 0.1 gr, immune-cell infiltrates were enriched by Percoll (GE Healthcare) gradient centrifugation. Cells from tumor-draining lymph nodes and spleens were prepared by mechanical dissociation on 40 μM filters and RBC lysis (ACK buffer, Lonza). Mouse PB was collected by retro-orbital puncture and RBC were lysed with Pharm Lyse Buffer (BD Bioscences). […]

For a further assay, the system named is B16 melanoma. Put plainly: Tumor growth and tumor-free survival in tumor-bearing mice. The format is in vivo, mouse. The protocol:
as §1

For assay [2], the system named is 4PD1^hi. Put plainly: FACS monitoring of circulating 4PD1hi in advanced NSCLC patients during immune checkpoint blockade. The format is in vivo, human. The method, then: To evaluate the role of 4PD1^hi in the development of anti-tumor immune responses in vivo, we monitored this cell population in cancer patients treated with immune checkpoint blockade. To detect human PD-1, we employed a mAb whose binding is not cross-blocked by the therapeutic αPD-1 Abs nivolumab or pembrolizumab (FIG. 7A). […] We thus explored in mice the capability of αCTLA-4 monotherapy to increase 4PD1^hi in a dose-dependent manner, by treating with 100 μg (standard dose in mice) or a higher amount (300 μg) of αCTLA-4 (FIG. 8B). […] Furthermore, in different mouse strains (C57BL/6J and Balb/c) we observed that the presence of tumor contributes to anti-CTLA-4-mediated induction of 4PD1^hi.
(§3) All patients and healthy donors signed an approved informed consent before providing tissue samples. Patient samples were collected on a tissue-collection protocol approved by the MSKCC Institutional Review Board and processed as described (Holmgaard et al., 2015).
Tumors were dissociated after 30 min incubation with Liberase TL and DNAse I (Roche) to obtain single-cell suspensions. When tumor mass exceeded 0.1 gr, immune-cell infiltrates were enriched by Percoll (GE Healthcare) gradient centrifugation. Cells from tumor-draining lymph nodes and spleens were prepared by mechanical dissociation on 40 μM filters and RBC lysis (ACK buffer, Lonza). […]

Assay [3] relates to 4PD1^hi. Put plainly: FACS monitoring of circulating 4PD1hi / CD4+ T-cell subsets in advanced melanoma patients during immune checkpoint blockade. Particulars: for circulating 4PD1hi frequency: metastatic melanoma patients, ipilimumab n=47, pembrolizumab n=52, relative to baseline. In kind it is in vivo, human.
Description: We further confirmed the results achieved in NSCLC patients in larger cohorts of metastatic melanoma patients treated with ipilimumab (FIG. 8C, αCTLA-4, n=47) or the αPD-1 pembrolizumab (FIG. 8C, n=52, 50/52 upon relapse on ipilimumab). αCTLA-4 increased circulating 4PD1^hi, while administration of αPD-1 reduced their frequency (FIG. 8C). We further substantiated the capability of αPD-1 (pembrolizumab) to down-regulate 4PD1hi in an independent cohort of melanoma patients (Huang et al., 2017) (FIG. 8F).
as §3
Tumors were dissociated after 30 min incubation with Liberase TL and DNAse I (Roche) to obtain single-cell suspensions. When tumor mass exceeded 0.1 gr, immune-cell infiltrates were enriched by Percoll (GE Healthcare) gradient centrifugation. Cells from tumor-draining lymph nodes and spleens were prepared by mechanical dissociation on 40 μM filters and RBC lysis (ACK buffer, Lonza). Mouse PB was collected by retro-orbital puncture and RBC were lysed with Pharm Lyse Buffer (BD Bioscences). Surface staining of mouse cells was performed after 15 min pre-incubation with anti-mouse CD16/CD32 Ab (clone 2.4G2; BD Biosciences) to block FcγR binding, with panels of appropriately diluted fluorochrome-conjugated Abs (from BD Biosciences, eBioscience or Invitrogen) against the following mouse proteins in different combinations: CD45 (clone 30-F11), CD45.1 (clone A20), CD4 (clone RM4-5), CD8a (clone 5H10), Thy1.1 (clone OX-7), B220 (RA3-6B2), CD19 (clone 1D3), PD-1 (RMP1-30), CD44 (clone IM7), CD62L (clone MEL-14), CD25 (clone PC61.5), CD86 (clone GL-1), I-A/I-E (clone M5/114.15.2), PD-L1 (clone MIH5), ICOS (clone C398.4A), CXCR5 (biotin-conjugated clone 2G8, followed by PE-/APC-labeled streptavidin staining), and a eFluor506 fixable viability dye. For intracellular staining, mouse cells were fixed and permeabilized (Foxp3 fixation/permeabilization buffer, eBioscience) and incubated with appropriately diluted PECF594-labeled anti-Bcl6 (clone K112-91, BD Biosciences), PECy7-labeled anti-Ki67 (clone B56, BD Biosciences), and FITC-labeled anti-Foxp3 (clone FJK-16s, eBioscience) Abs. Surface staining of human cells was performed in the presence of FcγR Blocking reagent (Miltenyi Biotec) with proper dilutions of fluorochrome-conjugated Abs (from BD Biosciences, eBioscience or Tonbo) against the following human proteins in different combinations: CD45 (clone HI30), CD45RA (clone HI100), CD4 (clone RPA-T4), PD-1 (clone MIH4 or J105 in anti-PD-1-treatment naïve samples), CD25 (clone MA251), ICOS (clone ISA-3), CXCR5 (clone RF8B2), CD19 (clone HIB19), and CD86 (clone FUN-1), and a eFluor506 fixable viability dye. For intracellular staining, human cells were fixed and permeabilized (Foxp3 fixation/permeabilization buffer, eBioscience) and then incubated with appropriately diluted eFuor450-labeled anti-Foxp3 (clone PCH101, eBiosciences), PECF594-labeled anti-Bcl6 (clone K112-91), and APC-labeled anti-CTLA-4 (clone BNI3, BD Biosciences) Abs.

Another assay has as its system circulating B cells. In words: CD86 expression on circulating B cells of metastatic melanoma patients. The format is in vivo, human. Conditions: ipilimumab 3 mg/kg q3 wks, n=16. The protocol:
as §3, §2

Take `O=C(O)CC(C(=O)O)n1c(O)c(C2=c3cc(Br)ccc3=NC2=O)sc1=S` (stereo not shown) [Bcl6 inhibitor]: in the assay on 4PD1^hi [1] (Bcl6 inhibition), the “intra-tumor Tregs” value is listed as “favored intra-tumor Treg expansion” and the “total CD4+ or CD8+ T-cell intra-tumor infiltration” value is given as “did not find significant increases”. Moreover, the “4PD1hi in the periphery and at the tumor site” value in the assay with 4PD1^hi [1] (Bcl6 inhibitor 50 mg/kg daily i.p.) is reported as “effective in controlling”. For the same compound, the “anti-tumor activity in RAG KO mice” value with B16 melanoma (RAG KO mice lacking mature T and B cells, Bcl6 inhibition) is recorded as “completely lost”. In addition, the tumor growth result in the assay on B16 melanoma (WT mice, Bcl6 inhibitor, also in the context of CTLA-4 blockade and high baseline 4PD1hi) is “modestly (but significantly) delayed tumor growth”.
On to ipilimumab, for which the “circulating 4PD1hi” value in the assay with 4PD1^hi [2] (NSCLC patients, ipilimumab 1 or 3 mg/kg added to nivolumab 1 mg/kg, compared with nivolumab monotherapy) is reported as “proportional increases”. For the same compound, the “ICOS expression in CD4+ T cell subsets” value in the assay on 4PD1^hi [3] (melanoma cohort, 4PD1neg, Tregs and 4PD1hi) was “induced ICOS expression”. The “circulating 4PD1hi frequency” value in the assay with 4PD1^hi [3] is given as “increased”. Moreover, the “CD86 on circulating B cells” value in the assay on circulating B cells was “up-regulation”.
Regarding nivolumab, the “peripheral 4PD1hi frequency” value in the assay on 4PD1^hi [2] (metastatic NSCLC patients, nivolumab monotherapy (nivo3, 3 mg/kg q2 wks, n=10), relative to baseline) is recorded as “reduced”.
For the compound pembrolizumab, the “4PD1hi frequency, independent cohort” value with 4PD1^hi [3] (independent cohort of melanoma patients, pembrolizumab 2 mg/kg q3 wks, n=18) is “down-regulate”. The “dose dependence of 4PD1hi down-regulation” value with 4PD1^hi [3] (melanoma patients, higher dose of pembrolizumab (2 mg/kg or 10 mg/kg)) is reported as “more efficient at down-regulating”. For the same compound, the “circulating 4PD1hi frequency” value in the assay on 4PD1^hi [3] was “reduced”.
